# Measurements published in patent US10214508B2, “Nitrogen-containing heterocyclic compound” (Takeda Pharmaceutical Company Limited, priority 2014, dated 2019).
# Legend:
# [1] = molecular target: T1, human M1 receptor (hCHRM1) (Homo sapiens, UniProt P11229); test: Measurement of M1 receptor positive allosteric modulator (M1PAM) activity, calcium fluorescence (FLIPRtetra); type: cell-based; conditions: 10 μM test compound with acetylcholine at EC20 (final 0.6-0.8 nM); 100% = acetylcholine 1 μM, 0% = DMSO; CHO-K1 cells expressing hCHRM1
# T1 construct: expressed in transfected cells
# T1 sequence (P11229 1-460): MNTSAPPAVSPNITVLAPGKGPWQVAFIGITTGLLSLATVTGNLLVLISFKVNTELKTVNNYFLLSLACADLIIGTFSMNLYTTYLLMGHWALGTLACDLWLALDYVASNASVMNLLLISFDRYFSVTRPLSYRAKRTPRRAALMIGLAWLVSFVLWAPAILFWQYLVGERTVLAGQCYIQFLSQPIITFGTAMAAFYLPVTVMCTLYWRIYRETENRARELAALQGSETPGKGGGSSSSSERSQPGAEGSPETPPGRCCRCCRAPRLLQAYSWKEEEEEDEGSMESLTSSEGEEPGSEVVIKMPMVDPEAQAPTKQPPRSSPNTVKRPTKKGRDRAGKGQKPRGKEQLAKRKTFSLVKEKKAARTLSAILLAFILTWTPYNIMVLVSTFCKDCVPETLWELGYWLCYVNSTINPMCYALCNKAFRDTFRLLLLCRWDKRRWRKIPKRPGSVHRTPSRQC
# Outline: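 CHO-K1 cells stably expressing hM1 were Fluo-4-loaded; compound added with acetylcholine at EC20 (0.6-0.8 nM final), calcium fluorescence read 1 min on FLIPRtetra. Activity scaled between DMSO (0%) and 1 μM acetylcholine (100%); inflection point of concentration–response reported as IP.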
# IP1 production = test: Measurement of myo-inositol 1 phosphate (IP1) in hippocampi after oral administration; type: in vivo, male Long-Evans rats; conditions: rat hippocampus, relative to Vehicle administration group as 100%
# Procedure: Measurement of Myo-Inositol 1 Phosphate (IP1)
# Animals used were male Long-Evans rats. They were used after acclimation for at least 1 week. Test compounds were suspended in 0.5% (w/v) aqueous methylcellulose solution, and the suspension was orally administered to the rats. After a given time, lithium chloride was dissolved in saline and subcutaneously administered into the rats. After a given time, their bilateral hippocampi were isolated from the rats, and the wet weight thereof was measured. The isolated hippocampi were homogenized with HEPES buffer, followed by centrifugation. The IP1 and protein concentrations in the supernatant were measured by IP-One HTRF(R) assay kit (Cisbio Bioassays) and BCA protein assay kit (Thermo Scientific), respectively. The level of the IP1 production was expressed as the ratio of the concentration of IP1 to that of protein. The increase rate of the IP1 production was shown as a relative value when Vehicle administration group as 100%.
# [2] = test system: Scopolamine-induced memory deficits models; test: Novel object recognition test; type: in vivo, male Long-Evans rats; conditions: 2 hours before acquisition trial, scopolamine 0.1 mg/kg s.c., mean±standard error
# Procedure: Novel Object Recognition Test Novel object recognition test is comprised of two trials called the acquisition and the retention trials. Scopolamine-induced memory deficits models were used for the test, and animals used were male Long-Evans rats (7-week-old). On the day before the test, for acclimation, the rats were allowed to freely move about the test box (40×40×50 cm) for 10 minutes. On the test day, the rats were acclimated to the test room for about for 1 hr prior to the test. The test compounds were orally administered to the rats in a single dose 2 hours before the acquisition trial. For induction of learning and memory deficits, scopolamine (0.1 mg/kg) was subcutaneously administered into the rats for 30 min before the acquisition trial. For the acquisition trial, two identical objects (A1, A2) were placed in the test box. The rats were put in the test box for 3 min, and the duration exploring each object was measured. The retention trial was performed for 4 hr after the acquisition trial. For the retention trial, one familiar object (A3) used for the acquisition trial and one novel object (B) having a different shape from A3 were placed in the test box. After setting the objects, the rats were introduced into the test box and retention trial was performed for 3 min. The duration for exploring each object in the acquisition trial and the retention trial was measured, and the exploration rate of novel object was calculated. The exploration rate of novel object was expressed as (the duration exploring the novel object)/[(the duration exploring the novel object)+(the duration exploring the familiar object)]×100(%) at mean±standard error.
activity (%) at 10 μM [1] [%],Compound,increase rate (%) of the IP1 production (IP1 production; 10 mg/kg) [%],"exploration rate of novel object (%) ([2]; 10 mg/kg oral, control group 69.26±2.87%, solvent-scopolamine group 55.27±3.48%)","exploration rate of novel object (%) ([2]; 3 mg/kg oral, control group 66.74±3.01%, solvent-scopolamine group 47.48±3.66%)",increase rate (%) of the IP1 production (IP1 production; 3 mg/kg) [%],"exploration rate of novel object (%) ([2]; 10 mg/kg oral, control group 66.74±3.01%, solvent-scopolamine group 47.48±3.66%)"
86,"Cc1cnc(C(=O)N[C@H]2CCC[C@@H]2O)cc1Cc1ccc(-c2ccn(C)n2)cc1 [Example 1, N-((1S,2S)-2-hydroxycyclopentyl)-5-methyl-4-(4-(1-methyl-1H-pyrazol-3-yl)benzyl)pyridine-2-carboxamide]",38,64.59±2.59,–,–,–
105,"Cc1nc(C(=O)N[C@H]2CCC[C@@H]2O)cc(Cc2ccc(-c3ccn(C)n3)cc2)c1C [Example 72, N-((1S,2S)-2-hydroxycyclopentyl)-5,6-dimethyl-4-(4-(1-methyl-1H-pyrazol-3-yl)benzyl)pyridine-2-carboxamide]",70,–,53.16±2.80,–,–
103,"Cc1nc(C(=O)N[C@H]2CCCC[C@@H]2O)cc(Cc2ccc(-c3ccn(C)n3)nc2)c1C [Example 74, N-((1S,2S)-2-hydroxycyclohexyl)-5,6-dimethyl-4-((6-(1-methyl-1H-pyrazol-3-yl)pyridin-3-yl)methyl)pyridine-2-carboxamide]",–,–,–,22,55.14±1.48
106,"Cc1nc(C(=O)N[C@H]2CCC[C@@H]2O)cc(Cc2ccc(-c3ccn(C)n3)nc2)c1C [Example 117, N-((1S,2S)-2-hydroxycyclopentyl)-5,6-dimethyl-4-((6-(1-methyl-1H-pyrazol-3-yl)pyridin-3-yl)methyl)pyridine-2-carboxamide]",–,–,–,–,–
